Tests used:
HepG2 (liver carcinoma) = experiment: growth inhibition of human tumour cells, 72 h incubation; format: cell-based; settings: 72 hours of incubation
Protocol: (§1) On the one hand, human cells of different types of cancer were used. The cells were incubated at 37° C. and 5% of CO2 in air, in culture medium RPMI1640 or DMEM with bovine foetal serum (10%) and other supplements and in the presence or absence of the triglycerides of the present invention at different concentrations during 72 hours. It was possible to observe that the hydroxy-triglycerides of the invention have a high efficacy against the growth of human tumour cells, but not against the growth of normal non-tumour cells (human fibroblasts, MRC5).

U87M (glioma) = experiment: as above; format: cell-based; settings: 72 hours of incubation
Protocol: as §1

BXPC3 (pancreas) = experiment: as above; format: cell-based; settings: 72 hours of incubation
Protocol: as §1

SH-SY5Y (neuroblastoma) = experiment: as above; format: cell-based; settings: 72 hours of incubation
Protocol: as §1

PC3 (prostate) = experiment: as above; format: cell-based; settings: 72 hours of incubation
Protocol: as §1

[1] = tested on: HL-60 (myeloblastic leukaemia); experiment: as above; format: cell-based; settings: 72 hours of incubation
Protocol: as §1

MIA-PaCa-2 (pancreas) = experiment: as above; format: cell-based; settings: 72 hours of incubation
Protocol: as §1

MDA-MB231 (breast) = experiment: as above; format: cell-based; settings: 72 hours of incubation
Protocol: as §1

[2] = tested on: Jurkat (lymphoblastic leukaemia); experiment: as above; format: cell-based; settings: 72 hours of incubation
Protocol: as §1

SF767 (glioma) = experiment: as above; format: cell-based; settings: 72 hours of incubation
Protocol: as §1

HT-29 (colon) = experiment: as above; format: cell-based; settings: 72 hours of incubation
Protocol: as §1

HeLa (cervix) = experiment: as above; format: cell-based; settings: 72 hours of incubation
Protocol: as §1

A549 (lung) = experiment: as above; format: cell-based; settings: 72 hours of incubation
Protocol: as §1

[3] = molecular target: T1, Glycogen Branching Enzyme 1 (GBE1) variant Y329S (Homo sapiens, UniProt Q04446, Y329S); experiment: activity of purified enzyme GBE1 Y329S in the presence of PC membranes; format: biochemical; settings: PC membranes with TGM 20 mol %; non-mutated enzyme = 100% (0.76 nmol/min · ng protein)
T1 sequence (Q04446 1-702 Y329S): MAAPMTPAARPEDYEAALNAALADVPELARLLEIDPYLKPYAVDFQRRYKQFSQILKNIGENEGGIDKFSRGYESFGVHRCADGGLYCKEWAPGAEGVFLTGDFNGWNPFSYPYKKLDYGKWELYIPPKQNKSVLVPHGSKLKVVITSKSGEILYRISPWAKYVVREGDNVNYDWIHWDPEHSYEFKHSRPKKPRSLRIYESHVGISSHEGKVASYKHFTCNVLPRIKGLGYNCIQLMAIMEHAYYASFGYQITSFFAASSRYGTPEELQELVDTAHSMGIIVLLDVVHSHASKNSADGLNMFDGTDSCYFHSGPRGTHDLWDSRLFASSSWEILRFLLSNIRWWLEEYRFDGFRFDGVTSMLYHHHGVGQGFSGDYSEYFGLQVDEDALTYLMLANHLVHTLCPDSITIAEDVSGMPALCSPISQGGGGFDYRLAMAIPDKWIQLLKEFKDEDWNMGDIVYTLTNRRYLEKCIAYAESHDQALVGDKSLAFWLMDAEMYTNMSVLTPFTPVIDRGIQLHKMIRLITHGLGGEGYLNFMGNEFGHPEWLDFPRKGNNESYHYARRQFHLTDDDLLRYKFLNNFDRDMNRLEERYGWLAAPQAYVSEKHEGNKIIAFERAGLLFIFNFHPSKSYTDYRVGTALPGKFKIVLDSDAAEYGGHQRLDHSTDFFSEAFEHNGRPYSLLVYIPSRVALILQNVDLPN
Excerpt: It has been possible to observe that the molecules of the present invention are capable of regulating the activity of the Glycogen Branching Enzyme 1 (GBE1) and its joining to membranes (Table 9). Alterations in this enzyme give rise to a neurodegenerative process known as APBD (Kakhlon et al., 2013). It has been described that a modification of tyrosine in position 329 of this enzyme (Y329S) causes a reduction in the activity of GBE1. This gives rise to a lower branching of glycogen, which precipitates forming […] which interfere with cell activity (Kakhlon et al., 2013). This gives rise to problems in the function of certain organs, to motor problems and, in some cases, to cognitive decline. We have been able to verify that the hydroxy-triglycerides of the present invention are capable of regulating the joining of native GBE1 (wild type, wt) and with the variant Y329S to membranes and to increase the activity of the form Y329S, which is very low in normal conditions (Table 9). For this reason, the molecules of the present invention are effective for the prevention and treatment of the polyglucosan bodies disease, APBD.

[4] = tested on: MRC5 (non-tumour) human fibroblasts; experiment: growth inhibition of normal non-tumour cells, 72 h incubation; format: cell-based; settings: 72 hours of incubation
Protocol: as §1

body weight of SHR rats = format: in vivo; settings: 14 days, 600 mg/kg, 12 h, p.o., basal weight 342 grams
Excerpt: Metabolic and cardiovascular pathologies are closely related. The overfeeding which characterises our society not only gives rise to problems of obesity and excess weight. It is also linked to the appearance of diabetes, dyslipidaemia, hypertension, strokes, arteriosclerosis, ictus, etc. All of these pathologies increase the risk of premature death and can even cause death. In this sense, certain natural oils show a certain efficacy against this type of pathologies, but their power is limited. In contrast, the molecules of the invention have an important effect against the development of this type of pathologies. To be able to study the effects of the compounds of the invention for the prevention and treatment of metabolic and cardiovascular pathologies, hypertensive rats were used (SHR strain, spontaneously hypertensive rats). These rats present obesity, high blood pressure, dyslipidaemia (hypercholesterolemia and hypertriglyceridemia), diabetes, metabolic syndrome and other related health problems.

NCI1975D (lung) = experiment: growth inhibition of human tumour cells, 72 h incubation; format: cell-based; settings: 72 hours of incubation
Protocol: as §1

Row | SMILES | IC50 (HepG2 (liver carcinoma)) [µM] | IC50 (U87M (glioma)) [µM] | IC50 (BXPC3 (pancreas)) [µM] | IC50 (SH-SY5Y (neuroblastoma)) [µM] | IC50 (PC3 (prostate)) [µM] | IC50 [1] [µM] | IC50 (MIA-PaCa-2 (pancreas)) [µM] | IC50 (MDA-MB231 (breast)) [µM] | IC50 [2] [µM] | IC50 (SF767 (glioma)) [µM] | IC50 (HT-29 (colon)) [µM] | IC50 (HeLa (cervix)) [µM] | IC50 (A549 (lung)) [µM] | Activity Y329S [3] [%] | IC50 [4] [µM] | ΔWeight, change in weight (body weight of SHR rats) [g] | IC50 (NCI1975D (lung)) [µM] | further results
1 | CCCCCC=CCC=CCC=CCCCC(O)C(=O)OCC(COC(=O)C(O)CCCC=CCC=CCC=CCCCCC)OC(=O)C(O)CCCC=CCC=CCC=CCCCCC (centres unmarked) [TGM3G, 1,2,3-tri(2′-hydroxy-octadec-6′,9′,12′-trienoyl)glycerol] | 187 | 28 | 81 | 154 | 94 | 42 | 123 | 187 | 174 | 46 | 59 | 75 | 39 | 9 ± 4 | > 500 | -12 ± 3 | – | –
2 | CCCCCC=CCC=CCCCCCCC(O)C(=O)OCC(COC(=O)C(O)CCCCCCC=CCC=CCCCCC)OC(=O)C(O)CCCCCCC=CCC=CCCCCC (centres unmarked) [TGM2, 1,2,3-tri(2′-hydroxy-octadec-9′,12′-dienoyl)glycerol] | 25 | 56 | 31 | 74 | 42 | 114 | 77 | 57 | 67 | 31 | 132 | 147 | 2 | 11 ± 2 | > 500 | -32 ± 6 | 54 | –
3 | CCC=CCC=CCC=CCC=CCC=CCC=CCC(O)C(=O)OCC(COC(=O)C(O)CC=CCC=CCC=CCC=CCC=CCC=CCC)OC(=O)C(O)CC=CCC=CCC=CCC=CCC=CCC=CCC (centres unmarked) [TGM6, 1,2,3-tri(2′-hydroxy-docosa-4′,7′,10′,13′,16′,19′-hexanoyl)glycerol] | 30 | 36 | 18 | 7 | 5 | 6 | 29 | 9 | 25 | 41 | 34 | 12 | 1 | 5 ± 1 | > 500 | -19 ± 4 | 21 | –
4 | CCCCCCCCC=CCCCCCCC(O)C(=O)OCC(COC(=O)C(O)CCCCCCC=CCCCCCCCC)OC(=O)C(O)CCCCCCC=CCCCCCCCC (centres unmarked) [TGM1, 1,2,3-tri(2′-hydroxy-octadec-9′-enoyl)glycerol] | 87 | 257 | 211 | 129 | 240 | 243 | 144 | 128 | 32 | 282 | 93 | 184 | 29 | 7 ± 1 | > 500 | -22 ± 5 | 292 | –
5 | CCC=CCC=CCC=CCC=CCC=CCCC(O)C(=O)OCC(COC(=O)C(O)CCC=CCC=CCC=CCC=CCC=CCC)OC(=O)C(O)CCC=CCC=CCC=CCC=CCC=CCC (centres unmarked) [TGM5, 1,2,3-tri(2′-hydroxy-eicosa-5′,8′,11′,14′,17′-pentaenoyl)glycerol] | 52 | 43 | 17 | 29 | 21 | 13 | 23 | 18 | 9 | 26 | 8 | 19 | 4 | 16 ± 3 | > 500 | -9 ± 3 | 14 | –
6 | CCC=CCC=CCC=CCCCCCCC(O)C(=O)OCC(COC(=O)C(O)CCCCCCC=CCC=CCC=CCC)OC(=O)C(O)CCCCCCC=CCC=CCC=CCC (centres unmarked) [TGM3A, 1,2,3-tri(2′-hydroxy-octadec-9′,12′,15′-trienoyl)glycerol] | 42 | 31 | 80 | 39 | 119 | 58 | 142 | 116 | 95 | 57 | 187 | 164 | 43 | 10 ± 2 | > 500 | -14 ± 4 | 64 | –
7 | CCCCCC=CCC=CCC=CCC=CCCC(O)C(=O)OCC(COC(=O)C(O)CCC=CCC=CCC=CCC=CCCCCC)OC(=O)C(O)CCC=CCC=CCC=CCC=CCCCCC (centres unmarked) [TGM4, 1,2,3-tri(2′-hydroxy-eicosa-5′,8′,11′,14′-tetraenoyl)glycerol] | 22 | 17 | 72 | 27 | 18 | 32 | 43 | 36 | 151 | 21 | 11 | 6 | 0.9 | 4 ± 1 | > 500 | -25 ± 5 | 10 | –
8 | CCCCCC(O)C(=O)OCC(COC(=O)C(O)CCCCC)OC(=O)C(O)CCCCC (centres unmarked) [TGM0, 1,2,3-tri(2′-hydroxyheptanoyl)glycerol] | – | – | – | – | – | – | – | – | – | – | – | – | – | 20 ± 2 | – | -4 ± 2 | – | IC50 (HepG2 (liver carcinoma); Homo sapiens, HepG2): 326 µM; IC50 (U87M (glioma); Homo sapiens): 342 µM; IC50 (BXPC3 (pancreas); Homo sapiens, BXPC-3): 297 µM; IC50 (SH-SY5Y (neuroblastoma); Homo sapiens, SH-SY5Y): 253 µM; IC50 (NCI1975D (lung); Homo sapiens): 327 µM; IC50 (PC3 (prostate); Homo sapiens): 231 µM; IC50 (MIA-PaCa-2 (pancreas); Homo sapiens, MIA PaCa-2): 283 µM; IC50 (MDA-MB231 (breast); Homo sapiens, MDA-MB-231): 254 µM; IC50 ([2]; Homo sapiens, Jurkat): 176 µM; IC50 (SF767 (glioma); Homo sapiens, SF767): 278 µM; IC50 (HT-29 (colon); Homo sapiens, HT-29): 265 µM; IC50 (HeLa (cervix); Homo sapiens, HeLa): 199 µM; IC50 (A549 (lung); Homo sapiens, A549): 121 µM; IC50 ([4]; Homo sapiens, MRC5): > 500 µM

Source: patent publication US10047036B2, “Method for the synthesis of hydroxy-triglycerides and uses thereof for the prevention and treatment of diseases” (UNIVERSITAT DE LES ILLES BALEARS, priority 2014, dated 2018)
